{"source": "paper PMC8776995", "about": "(Frontiers in Chemistry, 2022)", "key": {"[1]": {"test_system": "CCND1, CCNA2, CCNB1, CDK2, CDK6 RNA in PC-9 cells", "assay": "qPCR assay for cell cycle-related gene analysis", "type": "cell-based, human", "details": "for RQ / RQ, CCNA / RQ, CCNB / RQ, CCND1 / RQ, CDK6 / RQ (CDK2): endogenous control b-Actin, reference sample NC; for CDK6 relative mRNA expression (fold of NC): normalised to beta-Actin, relative to NC = 1", "excerpt": "To better understand the mechanisms underlying cell cycle arrest induced by e4 and e12 in NSCLC cells, we assessed the expression levels of a few genes involved in cell cycle regulation, including cyclin D1 (CCND1), cyclin A2 (CCNA2), cyclin B1 (CCNB1), cyclin-dependent kinase 2 (CDK2), and cyclin-dependent kinase 6 (CDK6) in PC-9 by qPCR. […] CCNA2 is known to bind and activate CDK2 and thus promotes the transition through G1/S and G2/M. CCNB1 and CCND1 are essential to mitosis and G1/S transition respectively. While G2/M arrest weas not detected, the changes in these gene expression profiles interpret the G1/S arrests in PC-9 cells treated with e4 and e12. PC-9 cells exposed to the compounds for various periods should be examined further.\nTotal RNA of cells was extracted and cDNA was synthesized. The primers for the target products were designed as in Table 3."}, "[2]": {"test_system": "AKT phosphorylation (S473) in PC-9 cells", "assay": "Western blot, p-AKT/AKT in PC-9", "details": "for p-AKT/AKT: band density ratio; for p-AKT/AKT relative to DMSO: ratio normalised to DMSO = 1", "protocol": "We also performed western blot analysis to evaluate the impact of e4 and e12 on EGFR signaling in PC-9 and H460 cells.\nH460 cells were seeded in six-well plates with serum-free medium overnight, and then treated complete medium containing 0.1% DMSO, various concentrations (0.1, 1 and 10 μM) of either compound e4 or e12 for 2 h, respectively. […] Then the H460 cells were treated with complete medium containing EGF (10 ng/ml) for 5 min. Then the cells were harvested and washed with PBS, centrifuged, resuspended in 100–200 μl of RIPA lysis buffer containing Protease and Phosphatase Inhibitor Cocktail (1X), and then centrifuged for 5 min at 12,000 rpm at 4°C. The supernatant was used for protein analysis. […] Then the membrane was washed 5 min (X3) and incubated at 1:3,000 dilution of anti-rabbit secondary antibodies or 1:1,000 dilution of anti-mouse secondary antibodies for 1 h at RT. After washing with TBST 5 min (X3), protein bands were developed by chemiluminescence. The protein levels were quantified by the gray values of the bands in the resulting images by ImageJ, and the control group was used as the standard. […] The PC-9 cells were harvested and analyzed as above."}, "PC-9 cells": {"test_system": "PC-9 cells", "assay": "Annexin V/PI flow cytometry for cell apoptosis, PC-9", "type": "cell-based, human", "design": "key to Apoptosis (sum of Q2 and Q3) / Apoptosis, Average: % apoptotic cells (Annexin V/PI flow cytometry)", "details": "for Apoptosis, Average / Lymphocytes/Q2: FITC-A+ , PI-A+ Freq. of Parent / Lymphocytes/Q3: FITC-A+ , PI-A- Freq. of Parent / Apoptosis (sum of Q2 and Q3): PC-9, 48h; for Apoptosis, Average: average of three repeats; for Lymphocytes/Q2: FITC-A+ , PI-A+ Freq. of Parent / Lymphocytes/Q3: FITC-A+ , PI-A- Freq. of Parent: single runs; for Apoptosis (sum of Q2 and Q3): single repeats (Repeat 1-3)", "method": "To establish whether the antiproliferative efficacy is associated with apoptosis, PC-9 and H460 cells were treated with compound e4 or e12 of various concentrations (4, 8 and 12 μM) for 48 h, and then assessed with flow cytometry.\nCell-apoptosis analysis was carried out by flow cytometry using the Annexin V/PI apoptosis kit according to the manufacturer’s manual. Briefly, PC-9 or H460 (3 × 10^4–5 × 10^4/well) cells were seeded in 12-well plates for 24 h, and then treated with 0.1% DMSO (as control) or various concentrations of compound e4 or e12 for 48 h, respectively. Cells were harvested, washed with PBS, and then incubated with 100ul of 1X Annexin V binding buffer containing 1 μl PI and 1 μl FITC Annexin V for 15 min at RT in the dark. 200 µl of 1X binding buffer were added to each tube for flow cytometry analysis (BD LSRFortessa™ Flow Cytometer). The percentages of apoptotic cells were analyzed using FlowJo soft."}, "[3]": {"details": "PC-9, 16 h, compared with DMSO control"}}, "note": "Values joined by “and” are separate entries in the source; they are usually repeats but may differ in a detail not shown here. Identical values can stand only once.", "data": [{"smiles": "COCCOc1cc2ncnc(Nc3cccc(-c4cn(Cc5cc(Br)cc(Br)c5)nn4)c3)c2cc1OCCOC", "note": "[e4, [6,7-Bis-(2-methoxy-ethoxy)-quinazolin-4-yl]-{3-[1-(3,5-dibromo-benzyl)-1H-[1,2,3]triazol-4-yl]-phenyl}-amine]", "values": [{"measurement": "RQ", "setting": "[1]; CDK2 mRNA, 12uM", "value": 1.173}, {"measurement": "2^ΔΔCт CDK6", "setting": "[1]; CDK6, 4uM, Repeat 1-3, relative to NC = 1", "value": "0.8111 and 1.387 and 0.8685"}, {"measurement": "2^ΔΔCт CDK6", "setting": "[1]; CDK6, 12uM, Repeat 1-3, relative to NC = 1", "value": "1.051 and 1.348 and 1.109"}, {"measurement": "RQ", "setting": "[1]; CDK6 mRNA, 4uM", "value": 0.8685}, {"measurement": "RQ", "setting": "[1]; CDK6 mRNA, 8uM", "value": 0.637}, {"measurement": "RQ", "setting": "[1]; CDK6 mRNA, 12uM", "value": 1.109}, {"measurement": "RNA expression of CCND1", "setting": "[1]; PC-9, 12 μM, 16 h", "value": "negatively regulated"}, {"measurement": "RNA level of CCNA2", "setting": "[1]; [3]", "value": "significantly decreased"}, {"measurement": "RNA level of CCNB1", "setting": "[1]; [3]", "value": "significantly decreased"}, {"measurement": "RQ, CCNA", "setting": "[1]; qPCR SYBR Green, CCNA mRNA, 4uM", "value": 0.8165}, {"measurement": "RQ, CCNA", "setting": "[1]; qPCR SYBR Green, CCNA mRNA, 8uM", "value": 0.778}, {"measurement": "RQ, CCNA", "setting": "[1]; qPCR SYBR Green, CCNA mRNA, 12uM", "value": 0.5446}, {"measurement": "RQ, CCNB", "setting": "[1]; qPCR SYBR Green, CCNB mRNA, 4uM", "value": 1.076}, {"measurement": "RQ, CCNB", "setting": "[1]; qPCR SYBR Green, CCNB mRNA, 8uM", "value": 1.137}, {"measurement": "RQ, CCNB", "setting": "[1]; qPCR SYBR Green, CCNB mRNA, 12uM", "value": 0.9859}, {"measurement": "RQ, CCND1", "setting": "[1]; qPCR SYBR Green, CCND1 mRNA, 4uM", "value": 1.076}, {"measurement": "RQ, CCND1", "setting": "[1]; qPCR SYBR Green, CCND1 mRNA, 8uM", "value": 0.7718}, {"measurement": "RQ, CCND1", "setting": "[1]; qPCR SYBR Green, CCND1 mRNA, 12uM", "value": 0.7441}, {"measurement": "RQ, CDK6", "setting": "[1]; qPCR SYBR Green, CDK6 mRNA, 4uM", "value": 1.387}, {"measurement": "RQ, CDK6", "setting": "[1]; qPCR SYBR Green, CDK6 mRNA, 8uM", "value": 1.7457}, {"measurement": "RQ, CDK6", "setting": "[1]; qPCR SYBR Green, CDK6 mRNA, 12uM", "value": 1.348}, {"measurement": "CDK6 relative mRNA expression (fold of NC, normalised to beta-Actin)", "setting": "[1]; qPCR, SYBR Green, 8uM", "value": 1.746}, {"measurement": "CDK6 relative mRNA expression (fold of NC)", "setting": "[1]; qPCR, SYBR Green, 8uM", "value": 0.9943}, {"measurement": "CDK6 relative mRNA expression (fold of NC)", "setting": "[1]; qPCR, SYBR Green, 12uM", "value": 1.109}, {"measurement": "2^ΔΔCт CDK6", "setting": "[1]; recalculated summary 20201020-1, normalized to WT (NC), CDK6, 4uM", "value": 1.387}, {"measurement": "2^ΔΔCт CDK6", "setting": "[1]; recalculated summary 20201020-1, normalized to WT (NC), CDK6, 8uM", "value": 1.746}, {"measurement": "RQ, CCNA", "setting": "[1]; target CCNA, 4uM", "value": 0.7613}, {"measurement": "RQ, CCNA", "setting": "[1]; target CCNA, 8uM", "value": 0.7109}, {"measurement": "RQ, CCNA", "setting": "[1]; target CCNA, 12uM", "value": 0.5857}, {"measurement": "RQ, CCNB", "setting": "[1]; target CCNB, 4uM", "value": 0.8081}, {"measurement": "RQ, CCNB", "setting": "[1]; target CCNB, 8uM", "value": 0.7848}, {"measurement": "RQ, CCNB", "setting": "[1]; target CCNB, 12uM", "value": 0.736}, {"measurement": "RQ, CCND1", "setting": "[1]; target CCND1, 4uM", "value": 0.8337}, {"measurement": "RQ, CCND1", "setting": "[1]; target CCND1, 8uM", "value": 0.7172}, {"measurement": "RQ, CCND1", "setting": "[1]; target CCND1, 12uM", "value": 0.6074}, {"measurement": "RQ (CDK2)", "setting": "[1]; target CDK2, 8uM", "value": 1.1688}, {"measurement": "RQ (CDK2)", "setting": "[1]; target CDK2, 12uM", "value": 0.9257}, {"measurement": "RQ, CDK6", "setting": "[1]; target CDK6, 4uM", "value": 0.8111}, {"measurement": "RQ, CDK6", "setting": "[1]; target CDK6, 8uM", "value": 0.824}, {"measurement": "RQ, CDK6", "setting": "[1]; target CDK6, 12uM", "value": 1.051}, {"measurement": "p-AKT/AKT", "setting": "[2]; PC-9, 0.1 uM", "value": 0.8512}, {"measurement": "p-AKT/AKT relative to DMSO", "setting": "[2]; PC-9, 0.1 uM", "value": 0.8172}, {"measurement": "p-AKT/AKT", "setting": "[2]; PC-9, 1 uM", "value": 0.7155}, {"measurement": "p-AKT/AKT relative to DMSO", "setting": "[2]; PC-9, 1 uM", "value": 0.6869}, {"measurement": "p-AKT/AKT", "setting": "[2]; PC-9, 10 uM", "value": 0.5338}, {"measurement": "p-AKT/AKT relative to DMSO", "setting": "[2]; PC-9, 10 uM", "value": 0.5125}, {"measurement": "phosphorylation of AKT (western blot)", "setting": "[2]; PC-9, especially at 10 μM", "value": "suppressed"}, {"measurement": "cell apoptosis (flow cytometry)", "setting": "PC-9 cells; PC-9, 4, 8 and 12 μM, 48 h", "value": "significant cell apoptosis"}, {"measurement": "Apoptosis, Average", "setting": "PC-9 cells; 4uM", "value": 10.24}, {"measurement": "Lymphocytes/Q2: FITC-A+ , PI-A+ Freq. of Parent", "setting": "PC-9 cells; 4uM", "value": "4.32% and 13.0% and 11.9%"}, {"measurement": "Lymphocytes/Q3: FITC-A+ , PI-A- Freq. of Parent", "setting": "PC-9 cells; 4uM", "value": "0.25% and 0.69% and 0.56%"}, {"measurement": "Apoptosis, Average", "setting": "PC-9 cells; 8uM", "value": 14.45}, {"measurement": "Apoptosis (sum of Q2 and Q3)", "setting": "PC-9 cells; 8uM", "value": "10.39 and 18.02 and 14.93"}, {"measurement": "Lymphocytes/Q2: FITC-A+ , PI-A+ Freq. of Parent", "setting": "PC-9 cells; 8uM", "value": "9.22% and 16.0% and 13.2%"}, {"measurement": "Lymphocytes/Q3: FITC-A+ , PI-A- Freq. of Parent", "setting": "PC-9 cells; 8uM", "value": "1.17% and 2.02% and 1.73%"}, {"measurement": "Apoptosis, Average", "setting": "PC-9 cells; 12uM", "value": 35.74}, {"measurement": "Apoptosis (sum of Q2 and Q3)", "setting": "PC-9 cells; 12uM", "value": "33.11 and 39.69 and 34.42"}, {"measurement": "Lymphocytes/Q2: FITC-A+ , PI-A+ Freq. of Parent", "setting": "PC-9 cells; 12uM", "value": "28.20% and 34.7% and 29.1%"}, {"measurement": "Lymphocytes/Q3: FITC-A+ , PI-A- Freq. of Parent", "setting": "PC-9 cells; 12uM", "value": "4.91% and 4.99% and 5.32%"}]}]}
